# Data published in patent US20120322150A1, “Mechanism and Method for Regulating Glycogen Synthase Kinase 3 (GSK3)-Related Kinases” (CARNEGIE INSTITUTION OF WASHINGTON, priority 2009, published 2012).
# Peptide text beside a SMILES is read from it. * marks the point of attachment. Cbz = O=C(OCc1ccccc1)*
# Experiments:
# BIN2 [1] = test: Immunoblotting of 2-DE of TAP-BIN2 from BL-treated plants; format: in vivo, Arabidopsis; conditions: 0.25 μM BL, 2 hrs, TAP-BIN2 transgenic plants
# Excerpt: Total proteins were extracted from BL-treated or untreated 35S::TAP-BIN2 plants for two-dimensional gel electrophoresis (2-DE) as described previously. The amount of BL-treated and untreated TAP-BIN2 proteins was normalized with Western blot. Equal amount of TAP-BIN2 proteins was separated by 2-DE using an immobilized pH gradient gel strip (7 cm, pH 3-10 non-linear) and 7.5% SDS-PAGE gel. The blots were probed with anti-PAP antibody (Sigma, St. Louis, Mo.).
# BIN2 [2] = biological target: T1, BIN2 (Arabidopsis thaliana, UniProt Q39011); test: In vitro BIN2 inhibition assay (BIN2 phosphorylation of BZR1); format: biochemical; conditions: BSU1-YFP immunoprecipitated from plants treated with BL versus untreated plants
# T1 construct: made in house; host or cells: E. coli
# T1 sequence (Q39011 1-380): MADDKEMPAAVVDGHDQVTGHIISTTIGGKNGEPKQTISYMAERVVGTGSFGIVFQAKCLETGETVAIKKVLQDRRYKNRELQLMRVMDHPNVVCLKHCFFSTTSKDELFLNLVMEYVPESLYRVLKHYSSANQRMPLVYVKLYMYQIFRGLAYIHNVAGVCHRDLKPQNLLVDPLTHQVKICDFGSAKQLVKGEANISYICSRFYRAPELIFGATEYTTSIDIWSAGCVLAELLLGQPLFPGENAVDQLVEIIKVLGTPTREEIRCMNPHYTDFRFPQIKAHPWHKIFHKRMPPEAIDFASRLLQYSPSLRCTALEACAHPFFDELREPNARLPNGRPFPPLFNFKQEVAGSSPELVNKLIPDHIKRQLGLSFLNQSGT
# Description: In vitro BIN2 inhibition assays were performed by 3 hrs co-incubation of MBP-BZR1, GST BIN2, GST BSU1 and ^32P-γATP or pre-incubation of GST-BIN2 with GST-BSU1 for various time followed by adding MBP-BZR1 and 32P-γATP. The examine activities of partial BSU1, N-terminal Kelch (1-363th amino acid) and C-terminal phosphatase (364-793th amino acid) region were used. GST, GST-BSU1, GSTBSU1-Ketch and GST-BSU1-phosphatase were pre-incubated with GST-BIN2 for 1 hr, and further incubated with MBP-BZR1 and ^32P-γATP for 3 hrs.
# To test activities of BSU1-YFP, anti-GFP antibody-Protein A beads were used to immunoprecipitate BSU1-YFP from extracts of BSU1-YFP transgenic plants, and non-transgenic wild type plants were used as control. The beads were incubated with GST-BIN2 or GST bin2-1 for 1 hr, and then the beads were removed. The BSU1-treated GST-BIN2 or GST-bin2-1 was further incubated with MBP-BZR1 and ^32P-γATP for 3 hrs.
# BIN2 [3] = test: pTyr200 of BIN2 in plants after BL treatment; format: in vivo, Arabidopsis; conditions: in the presence of MG132; 0.2 or 0.25 μM BL
# Description: (§1) Plant materials were ground with liquid nitrogen and resuspended in IP buffer (50 mM Tris, pH 7.5, 150 mM NaCl, 5% Glycerol, 1% Triton X-100, 1 mM PMSF and 1× protease inhibitor cocktail (Sigma)). Filtered protein extracts were centrifuged at 20,000 g for 10 min and resulting supernatant was incubated with anti-GFP antibody bound Protein A beads or anti-myc agarose beads for 1 hr. Beads were washed 5 times with washing buffer (50 MM Tris, pH 7.5, 150 mM NaCl, 0.2% Triton X-100, 1 mM PMSF and 1× Protease inhibitor cocktail). The beads were resuspended with a small volume of kinase buffer (20 mM Tris, pH 7.5, 1 mM MgCl2, 100 mM NaCl and) mM DTT) and used for in vitro phosphatase assays, or immunoprecipitated proteins were eluted with buffer containing 2% SDS and analyzed by SDS-PAGE and immunoblotting.
# GST-BIN2 or GST-bin2-1 was incubated with MBP-BSU1 or BSU1-YFP beads for 3 Ins and subjected to immunoblotting. pTyr200 residue of BIN2 was detected by anti-phospho-GSK3a/f3 (Tyr279/216) monoclonal antibody, 5G-2F (Millipore, Temecula, Calif.) and re-probed with HRP conjugated anti-GST antibody (Santa Cruz Biotechnology, Santa Cruz, Calif.). The det2 plants were treated with 0.2 μM BL after 1 hr incubation with 10 μM MG 132. AntiBIN2 serum was developed in rabbits using GST-BIN2 as an immunogen. Monoclonal anti-GSK3α/β antibody was purchased from Invitrogen (Carlsbad, Calif.).
# BIN2 [4] = test: BIN2-myc / bin2-1-myc protein level in transformed tobacco leaves; format: in vivo; conditions: 1 μM BL for 1 hr
# Description: Transformation by Agrobacterium infiltration, observations of subcellular localization and BiFC signal in tobacco or Arabidopsis were performed as described previously 5. Fluorescence of YFP was visualized by using a spinning-disk confocal microscope (Leica Microsystems, Heerbruag, Germany).
# BIN2 [5] = test: BIN2-myc / bin2-1-myc degradation in transgenic plants; format: in vivo, Arabidopsis
# Description: as §1
# AtSK12 [6] = test: AtSK12 protein accumulation in transgenic plants; format: in vivo, Arabidopsis; design: dose or concentration left out as unconfirmed; conditions: AtSK12-myc plants; BRZ medium for 5 days; BL for 30 min
# Description: as §1
# AtSK12 [7] = test: pTyr dephosphorylation of AtSK12 in plants; format: in vivo, Arabidopsis; conditions: 10 μM MG132 then 0.25 μM BL
# Description: as §1
# BSU1 and BIN2 = test: Co-immunoprecipitation of BSU1-YFP and BIN2-myc after BL treatment; format: in vivo, Arabidopsis; conditions: plants grown on BRZ, 10 μM MG-132 1 hr, 0.2 μM BL 15 min
# Description: as §1
# BIN2 [8] = biological target: T1, BIN2; test: PP1 dephosphorylation of GST-tagged BIN2; format: biochemical; conditions: PP1 purified from E. coli
# Description: (§2) It was next examined whether the mammalian homolog to BSU1, PP1, would dephosphorylate BIN2. A GST-tagged BIN2 was isolated from cells and incubated with PP1 purified from E. coli cells expressing the phosphatase.
# PP1 = biological target: T2, PP1 (Homo sapiens, UniProt P36873); test: Inhibition of PP1 activity on BIN2; format: biochemical, mammalian
# T2 construct: made in house; host or cells: E. coli
# T2 sequence (P36873 whole entry): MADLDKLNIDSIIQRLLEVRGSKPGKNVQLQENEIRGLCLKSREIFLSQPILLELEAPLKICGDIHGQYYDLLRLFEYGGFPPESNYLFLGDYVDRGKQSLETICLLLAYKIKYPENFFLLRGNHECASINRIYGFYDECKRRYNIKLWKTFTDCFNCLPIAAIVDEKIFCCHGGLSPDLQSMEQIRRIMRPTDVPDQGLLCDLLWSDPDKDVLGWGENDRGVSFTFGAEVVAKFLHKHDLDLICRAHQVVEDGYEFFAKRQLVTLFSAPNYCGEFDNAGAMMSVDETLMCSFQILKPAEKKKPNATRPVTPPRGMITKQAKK
# Description: as §2
molecule,measurement,setting,value
"CC(C)[C@H](C)[C@@H](O)[C@H](O)[C@@H](C)[C@H]1CC[C@H]2[C@@H]3COC(=O)[C@H]4C[C@H](O)[C@H](O)C[C@]4(C)[C@H]3CC[C@]12C [BL, brassinolide]",phosphorylation forms of epitope-tagged BIN2 protein,BIN2 [1],caused disappearance of the acidic forms and an increase of the basic forms
same,BIN2-inhibiting activity of BSU1-YFP from BL-treated plants,BIN2 [2],more effective inhibition of BIN2 phosphorylation of BZR1
same,phosphorylation of Tyr200 of wild type BIN2 or BIN2-myc in plants,BIN2 [3],reduced the phosphorylation of Tyr200
same,level of BIN2 and bin2-1 proteins,BIN2 [4],reduces the level of BIN2 but not bin2-1 proteins
same,degradation of BIN2 and bin2-1,"BIN2 [5]; transgenic plants, 0.25 μM BL for 30 min",induces degradation of BIN2 but not bin2-1
same,AtSK12 protein stability,AtSK12 [6],destabilized
same,phosphorylation of AtSK12 Tyr233,AtSK12 [7],greatly reduced phosphorylation of AtSK12 Tyr233
same,interaction of BSU1 and BIN2,BSU1 and BIN2,BR-induced interaction of BSU1 and BIN2
CC(C)C[C@@H](C=O)NC(=O)[C@H](CC(C)C)NC(=O)[C@H](CC(C)C)NC(=O)OCc1ccccc1 [MG132] (Cbz-Leu-Leu-Leu-aldehyde),BR-induced BIN2 depletion,"BIN2 [5]; proteasome inhibitor, 10 μM",prevents BR-induced BIN2 depletion
CC(O)(c1ccccc1)C(Cc1ccc(Cl)cc1)n1cncn1 (stereo not drawn) [brassinazole],AtSK12 protein stability,AtSK12 [6],stabilized
"PP1: mammalian homolog to BSU1, protein phosphatase-1, purified from E. coli",dephosphorylation of BIN2 tyrosine200,BIN2 [8],increased dephosphorylation of BIN2 tyrosine200
manganese chloride,enzymatic activity of PP1 on BIN2,PP1,also inhibited the enxymatic activity of PP1 on BIN2
